Test results as given in paper PMC11742723, “The clinical-stage drug BTZ-043 accumulates in murine tuberculosis lesions and efficiently acts against Mycobacterium tuberculosis” (Nature Communications, 2025).
“And” between values parts separate entries of the source, which are not always exact repeats. Equal values may be shown once.

Assays:
[1] = system: Mtb H37Rv; assay: BTZ-043 dose-fractionation study in Mtb-infected BALB/c mice (lung CFU); assay type: in vivo, Mycobacterium tuberculosis; details: 10 mg /kg INH; 6 weeks of treatment; individual female mice
[2] = system: Mtb H37Rv; assay: BTZ-043 dose escalation study in Mtb-infected BALB/c mice (pulmonary CFU); assay type: in vivo, Mycobacterium tuberculosis; details: 25 mg/kg INH, individual female mice
[3] = In vitro permeability assay in Caco-2 monolayers; details: human; for Papp at 120 min, 25 µg/mL / Papp at 120 min, 40 µg/mL: Caco-2, Mean Papp, n=3; for Papp at 120 min, 25 µg/mL: Caco-2, 25 µg/mL; for Papp at 120 min, 40 µg/mL: Caco-2, 40 µg/mL
[4] = system: Caco-2 cell monolayers; assay: In vitro permeability assay in Caco-2 monolayers; details: for Concentration: replicates 1-3
[5] = cited from earlier work
[6] = system: Caco-2; details: cited from earlier work

Question: What does the source list for `NNC(=O)c1ccncc1` [INH, isoniazid, reference compound]?
Answer: pulmonary CFU counts / mouse [1]: 251 CFU counts / mouse (2×) and 876 CFU counts / mouse and 1751 CFU counts / mouse; pulmonary CFU counts / mouse ([2]; 4 weeks of treatment): 306600 CFU counts / mouse and 698438 CFU counts / mouse and 504563 CFU counts / mouse and 274286 CFU counts / mouse and 298200 CFU counts / mouse and 595125 CFU counts / mouse; pulmonary CFU counts / mouse ([2]; 6 weeks of treatment): 135000 CFU counts / mouse and 142313 CFU counts / mouse and 207692 CFU counts / mouse and 103500 CFU counts / mouse and 144000 CFU counts / mouse and 145313 CFU counts / mouse; pulmonary CFU counts / mouse ([2]; 8 weeks of treatment): 40714 CFU counts / mouse and 48086 CFU counts / mouse and 100000 CFU counts / mouse and 45000 CFU counts / mouse and 32560 CFU counts / mouse and 144000 CFU counts / mouse

Question: Which Papp A→B at 120 min ([3]; Caco-2) does the source give for `NC(=O)c1cnccn1` [PZA, pyrazinamide] here?
Answer: 49.7 to 61 ×10⁻⁶ cm/s

Question: And the Papp B→A at 120 min ([3]; Caco-2)?
Answer: 35 to 39.2 ×10⁻⁶ cm/s

Question: And the efflux ratio at 120 min, 25 µg/mL ([3]; Caco-2)?
Answer: 0.79

Question: What about the efflux ratio at 120 min, 40 µg/mL ([3]; Caco-2) of the same compound?
Answer: 0.57

Question: What about the Papp at 120 min, 25 µg/mL ([3]; direction AB) of the same compound?
Answer: 49.7 ×10⁻⁶ cm/s

Question: And the Papp at 120 min, 25 µg/mL ([3]; direction BA)?
Answer: 39.2 ×10⁻⁶ cm/s

Question: What about the Papp at 120 min, 40 µg/mL ([3]; direction AB) of the same compound?
Answer: 61 ×10⁻⁶ cm/s

Question: What about the Papp at 120 min, 40 µg/mL ([3]; direction BA) of the same compound?
Answer: 35 ×10⁻⁶ cm/s

Question: And the permeability classification ([4]; Caco-2)?
Answer: highly permeable drug

Question: What about the Concentration ([4]; PZA 25 μg mL^-1, direction AB, time 0 min) of the same compound?
Answer: 0 ng/mL

Question: And the Concentration ([4]; PZA 25 μg mL^-1, direction AB, time 10 min)?
Answer: 0 ng/mL and 525.202 ng/mL

Question: And the Concentration ([4]; PZA 25 μg mL^-1, direction AB, time 30 min)?
Answer: 1333.17 ng/mL and 1096.85 ng/mL and 1005.65 ng/mL

Question: And the Concentration ([4]; PZA 25 μg mL^-1, direction AB, time 60 min)?
Answer: 3321.25 ng/mL and 3452.37 ng/mL and 3341.43 ng/mL

Question: And the Concentration ([4]; PZA 25 μg mL^-1, direction AB, time 90 min)?
Answer: 3158.86 ng/mL and 3253.04 ng/mL and 3097.63 ng/mL

Question: What about the Concentration ([4]; PZA 25 μg mL^-1, direction AB, time 120 min) of the same compound?
Answer: 4030.2 ng/mL and 4138.52 ng/mL and 3490.73 ng/mL

Question: What about the Concentration ([4]; PZA 25 μg mL^-1, direction BA, time 0 min) of the same compound?
Answer: 0 ng/mL

Question: And the Concentration ([4]; PZA 25 μg mL^-1, direction BA, time 10 min)?
Answer: 1503.99 ng/mL and 1317.17 ng/mL and 1941.63 ng/mL

Question: And the Concentration ([4]; PZA 25 μg mL^-1, direction BA, time 30 min)?
Answer: 5734.38 ng/mL and 4427.73 ng/mL and 5446.92 ng/mL

Question: What about the Concentration ([4]; PZA 25 μg mL^-1, direction BA, time 60 min) of the same compound?
Answer: 9786.14 ng/mL and 7994.45 ng/mL and 7975.63 ng/mL

Question: And the Concentration ([4]; PZA 25 μg mL^-1, direction BA, time 90 min)?
Answer: 11259.4 ng/mL and 8631.13 ng/mL and 9901.08 ng/mL

Question: What about the Concentration ([4]; PZA 25 μg mL^-1, direction BA, time 120 min) of the same compound?
Answer: 13405.8 ng/mL and 11006.7 ng/mL and 13558.7 ng/mL

Question: And the Concentration ([4]; PZA 40 μg mL^-1, direction AB, time 0 min)?
Answer: 0 ng/mL

Question: And the Concentration ([4]; PZA 40 μg mL^-1, direction AB, time 10 min)?
Answer: 1048.64 ng/mL and 287.742 ng/mL and 2327.22 ng/mL

Question: What about the Concentration ([4]; PZA 40 μg mL^-1, direction AB, time 30 min) of the same compound?
Answer: 1430.93 ng/mL and 3432 ng/mL and 3592.69 ng/mL

Question: What about the Concentration ([4]; PZA 40 μg mL^-1, direction AB, time 60 min) of the same compound?
Answer: 4853.22 ng/mL and 4349.7 ng/mL and 4275.28 ng/mL

Question: And the Concentration ([4]; PZA 40 μg mL^-1, direction AB, time 90 min)?
Answer: 5770.39 ng/mL and 5601.9 ng/mL and 5436.88 ng/mL

Question: And the Concentration ([4]; PZA 40 μg mL^-1, direction AB, time 120 min)?
Answer: 4977.56 ng/mL and 4113.08 ng/mL and 4440.77 ng/mL

Question: What about the Concentration ([4]; PZA 40 μg mL^-1, direction BA, time 0 min) of the same compound?
Answer: 4045.86 ng/mL and 115.41 ng/mL and 340.993 ng/mL

Question: And the Concentration ([4]; PZA 40 μg mL^-1, direction BA, time 10 min)?
Answer: 3969.46 ng/mL and 1843.77 ng/mL and 2669.48 ng/mL

Question: What about the Concentration ([4]; PZA 40 μg mL^-1, direction BA, time 30 min) of the same compound?
Answer: 5459.68 ng/mL and 4472.97 ng/mL and 5086.94 ng/mL

Question: What about the Concentration ([4]; PZA 40 μg mL^-1, direction BA, time 60 min) of the same compound?
Answer: 9734.39 ng/mL and 8339.56 ng/mL and 9591.97 ng/mL

Question: And the Concentration ([4]; PZA 40 μg mL^-1, direction BA, time 90 min)?
Answer: 11611.6 ng/mL and 10257.1 ng/mL and 12377.9 ng/mL

Question: And the Concentration ([4]; PZA 40 μg mL^-1, direction BA, time 120 min)?
Answer: 12904.2 ng/mL and 13264.5 ng/mL and 15050 ng/mL

Question: What about the “Calculated Amount” value ([4]; PZA (25 µg mL^-1), direction AB, compartment api, time 0 min) of the same compound?
Answer: 20066.1 and 22292.2 and 24678

Question: And the “Calculated Amount” value ([4]; PZA (25 µg mL^-1), direction AB, compartment api, time 120 min)?
Answer: 10717.9 and 11820.9 and 10695.5

Question: What about the “Calculated Amount” value ([4]; PZA (25 µg mL^-1), direction AB, compartment baso, time 0 min) of the same compound?
Answer: 0

Question: What about the “Calculated Amount” value ([4]; PZA (25 µg mL^-1), direction AB, compartment baso, time 30 min) of the same compound?
Answer: 1096.85 and 1005.65

Question: What about the “Calculated Amount” value ([4]; PZA (25 µg mL^-1), direction AB, compartment baso, time 60 min) of the same compound?
Answer: 3321.25 and 3452.37 and 3341.43

Question: What about the “Calculated Amount” value ([4]; PZA (25 µg mL^-1), direction AB, compartment baso, time 90 min) of the same compound?
Answer: 3158.86 and 3253.04 and 3097.63

Question: What about the “Calculated Amount” value ([4]; PZA (25 µg mL^-1), direction AB, compartment baso, time 120 min) of the same compound?
Answer: 4030.2 and 4138.52 and 3490.73

Question: What about the “Calculated Amount” value ([4]; PZA (25 µg mL^-1), direction BA, compartment api, time 0 min) of the same compound?
Answer: 0

Question: And the “Calculated Amount” value ([4]; PZA (25 µg mL^-1), direction BA, compartment api, time 10 min)?
Answer: 1503.99 and 1317.17 and 1941.63

Question: And the “Calculated Amount” value ([4]; PZA (25 µg mL^-1), direction BA, compartment api, time 30 min)?
Answer: 5734.38 and 4427.73 and 5446.92

Question: What about the “Calculated Amount” value ([4]; PZA (25 µg mL^-1), direction BA, compartment api, time 60 min) of the same compound?
Answer: 9786.14 and 7994.45 and 7975.63

Question: And the “Calculated Amount” value ([4]; PZA (25 µg mL^-1), direction BA, compartment api, time 90 min)?
Answer: 11259.4 and 8631.13 and 9901.08

Question: And the “Calculated Amount” value ([4]; PZA (25 µg mL^-1), direction BA, compartment api, time 120 min)?
Answer: 13405.8 and 11006.7 and 13558.7

Question: What about the “Calculated Amount” value ([4]; PZA (25 µg mL^-1), direction BA, compartment baso, time 120 min) of the same compound?
Answer: 22133.4

Question: What about the “Calculated Amount” value ([4]; PZA (40 µg mL^-1), direction AB, compartment api, time 120 min) of the same compound?
Answer: 15162.6 and 15570.7 and 14836.3

Question: And the “Calculated Amount” value ([4]; PZA (40 µg mL^-1), direction BA, compartment baso, time 120 min)?
Answer: 27713.4 and 29783.3 and 27759.2

Question: What about the “penetration into centrally necrotizing granulomas” value [5] of the same compound?
Answer: readily penetrates centrally necrotizing granulomas

Question: What about the “Papp (AB)” value [6] of the same compound?
Answer: 70.4 10^−6 cm/s

Question: And the “Papp (BA)” value [6]?
Answer: 37.1 10^−6 cm/s

Question: For `CC(C)=CCC/C(C)=C/CNCCNC1C2CC3CC(C2)CC1C3` (stereo not shown) [SQ109], which “distribution in centrally necrotizing lesions by MALDI imaging” value ([5]; in vivo) is on record?
Answer: strong signals in the cellular rim of centrally necrotizing lesions but only poor diffusion into the avascular caseum

Question: With `CO[C@H]1/C=C/O[C@@]2(C)Oc3c(C)c(O)c4c(O)c(c(/C=N/N5CCN(C)CC5)c(O)c4c3C2=O)NC(=O)/C(C)=C\C=C\[C@H](C)[C@H](O)[C@@H](C)[C@@H](O)[C@@H](C)[C@H](OC(C)=O)[C@@H]1C` [RIF, rifampicin] as the compound, how does the “penetration into the cellular rim and necrotic center” value [5] read?
Answer: at least some penetration

Question: With `CC(C)/N=c1\cc2n(-c3ccc(Cl)cc3)c3ccccc3nc-2cc1Nc1ccc(Cl)cc1` [clofazimine] as the compound, how does the “penetration into centrally necrotizing granulomas” value [5] read?
Answer: only very limited penetration

Question: What about the “Papp (AB)” value [6] of the same compound?
Answer: 0.17 10^−6 cm/s

Question: What about the “Papp (BA)” value [6] of the same compound?
Answer: 0.18 10^−6 cm/s
